Results from the supplement of paper PMC10307832.

How the values were obtained:
Assay in all cases: relative viability (nuclei count vs DMSO), 5 days (fraction); higher = more cells survive
GSK-J4 + Alpelisib = compound: CCOC(=O)CCNc1cc(N2CCc3ccccc3CC2)nc(-c2ccccn2)n1 [GSK-J4] + Cc1nc(NC(=O)N2CCC[C@H]2C(N)=O)sc1-c1ccnc(C(C)(C)C(F)(F)F)c1 [Alpelisib] (partner 2 µM)
Outline: (§1)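 Lung cancer cell lines were pin-tool dosed in 1536-well plates on the day after seeding, with either a lone drug or a fixed anchor-drug dose plus five library-drug doses (not always all listed) in √10 steps. Nuclei were counted on 4× images after 5 days. Relative viability is the ratio of treated-well to vehicle-well nuclei counts, with each value a median of duplicate plates.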

AZ3146 + Vorinostat = compound: CN1CCC(CC1)OC2=CC(=C(C=C2)NC3=NC=C4C(=N3)N(C(=O)N4C)C5CCCC5)OC [AZ3146] + O=C(CCCCCCC(=O)Nc1ccccc1)NO [Vorinostat] (partner 1 µM)
Outline: as §1

GSK-J4 + Foretinib = compound: CCOC(=O)CCNc1cc(N2CCc3ccccc3CC2)nc(-c2ccccn2)n1 [GSK-J4] + COc1cc2c(Oc3ccc(NC(=O)C4(C(=O)Nc5ccc(F)cc5)CC4)cc3F)ccnc2cc1OCCCN1CCOCC1 [Foretinib] (partner 0.25 µM)
Outline: as §1

GSK-J4 + Vorinostat = compound: CCOC(=O)CCNc1cc(N2CCc3ccccc3CC2)nc(-c2ccccn2)n1 [GSK-J4] + O=C(CCCCCCC(=O)Nc1ccccc1)NO [Vorinostat] (partner 1 µM)
Outline: as §1

## UMC-11
GSK-J4 + Alpelisib; first compound 0.5 µM
  relative viability: 0.932
GSK-J4 + Alpelisib; first compound 1.581 µM
  relative viability: 0.856
GSK-J4 + Alpelisib; first compound 5 µM
  relative viability: 1.06
GSK-J4 + Alpelisib; first compound 15.81 µM
  relative viability: 0.938
GSK-J4 + Alpelisib; first compound 50 µM
  relative viability: 0.607
AZ3146 + Vorinostat; first compound 0.08 µM
  relative viability: 0.299
AZ3146 + Vorinostat; first compound 0.253 µM
  relative viability: 0.389
AZ3146 + Vorinostat; first compound 0.8 µM
  relative viability: 0.406
AZ3146 + Vorinostat; first compound 2.53 µM
  relative viability: 0.267
AZ3146 + Vorinostat; first compound 8 µM
  relative viability: 0.175
GSK-J4 + Foretinib; first compound 0.5 µM
  relative viability: 0.896
GSK-J4 + Foretinib; first compound 5 µM
  relative viability: 1.07
GSK-J4 + Foretinib; first compound 15.81 µM
  relative viability: 1.08
GSK-J4 + Foretinib; first compound 50 µM
  relative viability: 0.556
GSK-J4 + Vorinostat; first compound 0.5 µM
  relative viability: 0.418
GSK-J4 + Vorinostat; first compound 1.581 µM
  relative viability: 0.364
GSK-J4 + Vorinostat; first compound 5 µM
  relative viability: 0.492
GSK-J4 + Vorinostat; first compound 15.81 µM
  relative viability: 0.437
GSK-J4 + Vorinostat; first compound 50 µM
  relative viability: 0.187
